Experimental data taken from patent US9365566B2 (Takeda Pharmaceutical Company Limited, priority 2012, dated 2016).

What follows are molecules tested against T1, human BTK (Homo sapiens, UniProt Q06187) (assay: BTK inhibition assay: BTK-mediated phosphorylation of FAM-labeled substrate 5-FAM-EEPLYWSFPAKKK-NH2 (Caliper LC-3000)). Conditions: pIC50 = -log(IC50), IC50 molar; residues 382 to 659 of human BTK; incubated at room temperature for 60 minutes; larger values represent higher potency.
T1 construct: GST (Glutathione-S-Transferase) (cleaved yes); made in house; host or cells: Spodoptera frugiperda Sf9 cells (baculovirus, Bac-to-Bac)
Assay type: biochemical
Description: The activity of compounds as BTK inhibitors may be determined by a variety of methods, including in vitro and in vivo methods.
This construct engineers an in-frame translational fusion with the Glutathione-S-Transferase (GST) protein for use in affinity purification. The fusion protein derived from this construct contains a protease recognition sequence to liberate the BTK from the GST affinity tag. High-titer baculoviral stocks, generated using the Bac-to-Bac® system (Invitrogen), are used to express the recombinant protein in Spodoptera frugiperda Sf9 cells in 10 L Wave bags. Recombinant proteins are isolated from cellular extracts by passage over Glutathione Sepharose 4B (GE Healthcare) and the BTK moiety is released from the GST affinity tag by treatment with PreScission protease. The BTK recombinant protein is further purified by size exclusion chromatography (HiLoad 16/60 Superdex 200, GE Healthcare) in a buffer containing 20 mM Hepes (pH 7.4), 50 mM NaCl, 10 mM MgCl2, 0.25 mM TCEP and 0.1 mM EDTA. The purity of the fractions is assessed by SDS PAGE and the peak protein fractions are pooled and concentrated using Amicon Ultra-15 Centrifugal Filter Devices (Millipore).
The inhibitory properties of compounds relative to BTK is determined using a black 384-well-plate format in a buffer which contains 50 mM Hepes, 10 mM NaCl, 10 mM MgCl2, 0.2 mM EDTA, 0.01% Brij35®, 1 mM DTT, and 0.1 mg/mL BSA at pH 7.3. The test compound is prepared in DMSO using 2-fold serial dilutions for 11 data points, which are added to the buffer so that each dilution contains 3% DMSO. […] The reaction mixtures are incubated at room temperature for 60 minutes and then quenched by adding 25 μL of 50 mM EDTA. To quantify the fluorescent-labeled substrate and product following reaction, the test plate is loaded on a Caliper LC-3000, which measures percent of conversion by microfluidic-based separation.
The compounds were tested in accordance with the assay described on page 34 of the specification.

T1 sequence (Q06187 382-659): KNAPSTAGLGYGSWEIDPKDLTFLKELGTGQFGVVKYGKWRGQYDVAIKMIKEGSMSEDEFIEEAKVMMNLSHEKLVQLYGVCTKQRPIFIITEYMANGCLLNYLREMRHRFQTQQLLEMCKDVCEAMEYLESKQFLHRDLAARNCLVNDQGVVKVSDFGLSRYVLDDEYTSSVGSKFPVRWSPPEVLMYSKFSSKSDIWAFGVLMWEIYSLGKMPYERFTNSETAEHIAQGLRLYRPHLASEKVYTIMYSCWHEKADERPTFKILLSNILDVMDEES

Row | SMILES | IC50 [nM]
1 | COc1ccc(-c2ccc3cn[nH]c3c2)c2nnc(C(N)=O)c(N)c12 [Example 38, 4-amino-8-(1H-indazol-6-yl)-5-methoxycinnoline-3-carboxamide] | 39.8
2 | COc1ccc(-c2cc3[nH]ncc3cc2C)c2nnc(C(N)=O)c(N)c12 [Example 39, 4-amino-5-methoxy-8-(5-methyl-1H-indazol-6-yl)cinnoline-3-carboxamide] | 7.94
3 | COc1ccc2c(N)c(C(N)=O)nnc2c1-c1ccc2cn[nH]c2c1 [Example 41, 4-amino-8-(1H-indazol-6-yl)-7-methoxycinnoline-3-carboxamide] | 25.1
4 | COc1cc(C)c(-c2ccc3cn[nH]c3c2)c2nnc(C(N)=O)c(N)c12 [Example 42, 4-amino-8-(1H-indazol-6-yl)-5-methoxy-7-methylcinnoline-3-carboxamide] | 10
5 | Cc1cc2cn[nH]c2cc1-c1ccc(F)c2c(N)c(C(N)=O)nnc12 [Example 43, 4-amino-5-fluoro-8-(5-methyl-1H-indazol-6-yl)cinnoline-3-carboxamide] | 6.31
6 | Cc1cc2cnn(C)c2cc1-c1cccc2c(N)c(C(N)=O)nnc12 [Example 44, 4-amino-8-(1,5-dimethyl-1H-indazol-6-yl)cinnoline-3-carboxamide] | 501
7 | Cc1ccc2c(N)c(C(N)=O)nnc2c1-c1ccc2cnn(C)c2c1 [Example 45, 4-amino-7-methyl-8-(1-methyl-1H-indazol-6-yl)cinnoline-3-carboxamide] | 100
8 | COc1ccc2c(N)c(C(N)=O)nnc2c1-c1ccc2nc[nH]c2c1 [Example 46, 4-amino-8-(1H-benzo[d]imidazol-6-yl)-7-methoxycinnoline-3-carboxamide] | 63.1
9 | Cc1ccc2c(N)c(C(N)=O)nnc2c1-c1cnc2[nH]ncc2c1 [Example 47, 4-amino-7-methyl-8-(1H-pyrazolo[3,4-b]pyridin-5-yl)cinnoline-3-carboxamide] | 79.4
10 | Cc1ccc2c(N)c(C(N)=O)nnc2c1-c1ccc2[nH]nnc2c1 [Example 48, 4-amino-8-(1H-benzo[d][1,2,3]triazol-5-yl)-7-methylcinnoline-3-carboxamide] | 20
11 | Cc1cc2[nH]ncc2cc1-c1cccc2c(N)c(C(N)=O)nnc12 [Example 49, 4-amino-8-(6-methyl-1H-indazol-5-yl)cinnoline-3-carboxamide] | 10
12 | Cc1ccc2c(N)c(C(N)=O)nnc2c1-c1ccc2[nH]nc(C)c2c1 [Example 50, 4-amino-7-methyl-8-(3-methyl-1H-indazol-5-yl)cinnoline-3-carboxamide] | 100
13 | COc1ccc2c(N)c(C(N)=O)nnc2c1-c1ccc2[nH]ncc2c1 [Example 51, 4-amino-8-(1H-indazol-5-yl)-7-methoxycinnoline-3-carboxamide] | 12.6
14 | Cc1ccc2c(N)c(C(N)=O)nnc2c1-c1ccc2cn(C)nc2c1 [Example 52, 4-amino-7-methyl-8-(2-methyl-2H-indazol-6-yl)cinnoline-3-carboxamide] | 2510
15 | Cc1cc(C)c2c(N)c(C(N)=O)nnc2c1-c1ccc2cn[nH]c2c1 [Example 53, 4-amino-8-(1H-indazol-6-yl)-5,7-dimethylcinnoline-3-carboxamide] | 50.1
16 | NC(=O)c1nnc2c(-c3ccc4cn[nH]c4c3)c(Cl)ccc2c1N [Example 54, 4-amino-7-chloro-8-(1H-indazol-6-yl)cinnoline-3-carboxamide] | 15.8
17 | Cc1cc2c(cnn2C)cc1-c1cccc2c(N)c(C(N)=O)nnc12 [Example 55, 4-amino-8-(1,6-dimethyl-1H-indazol-5-yl)cinnoline-3-carboxamide] | 39.8
18 | Cc1cc(F)c2c(N)c(C(N)=O)nnc2c1-c1ccc2cn[nH]c2c1 [Example 56, 4-amino-5-fluoro-8-(1H-indazol-6-yl)-7-methylcinnoline-3-carboxamide] | 12.6
19 | Cc1ccc2c(N)c(C(N)=O)nnc2c1-c1ccc2ccncc2c1 [Example 57, 4-amino-8-(isoquinolin-7-yl)-7-methylcinnoline-3-carboxamide] | 200
20 | Cc1ccc2c(N)c(C(N)=O)nnc2c1-c1ccc2cnccc2c1 [Example 58, 4-amino-8-(isoquinolin-6-yl)-7-methylcinnoline-3-carboxamide] | 50.1

Row | SMILES | IC50 [nM]
21 | Cc1cc(F)c2c(N)c(C(N)=O)nnc2c1-c1ccc2[nH]ncc2c1 [Example 60, 4-amino-5-fluoro-8-(1H-indazol-5-yl)-7-methylcinnoline-3-carboxamide] | 7.94
22 | CCc1ccc2c(N)c(C(N)=O)nnc2c1-c1ccc2cn[nH]c2c1 [Example 61, 4-amino-7-ethyl-8-(1H-indazol-6-yl)cinnoline-3-carboxamide] | 10
23 | CCc1ccc2c(N)c(C(N)=O)nnc2c1-c1ccc2[nH]ncc2c1 [Example 62, 4-amino-7-ethyl-8-(1H-indazol-5-yl)cinnoline-3-carboxamide] | 5.01
24 | Cc1ccc2c(N)c(C(N)=O)nnc2c1-c1ccc2c(c1)CCNC2=O [Example 63, 4-amino-7-methyl-8-(1-oxo-1,2,3,4-tetrahydroisoquinolin-6-yl)cinnoline-3-carboxamide] | 25.1
25 | Cc1cc(-c2cc3[nH]ncc3cc2C)c2nnc(C(N)=O)c(N)c2c1 [Example 64, 4-amino-6-methyl-8-(5-methyl-1H-indazol-6-yl)cinnoline-3-carboxamide] | 10
26 | NC(=O)c1nnc2c(-c3ccc4nc(NCC5CC5)[nH]c4c3)cccc2c1N [Example 65, 4-amino-8-(2-((cyclopropylmethyl)amino)-1H-benzo[d]imidazol-6-yl)cinnoline-3-carboxamide] | 63.1
27 | CC(C)(C)Cc1nc2ccc(-c3cccc4c(N)c(C(N)=O)nnc34)cc2[nH]1 [Example 66, 4-amino-8-(2-neopentyl-1H-benzo[d]imidazol-6-yl)cinnoline-3-carboxamide] | 631
28 | NC(=O)c1nnc2c(-c3ccc4nc(-c5cc(Cl)cc(Cl)c5)[nH]c4c3)cccc2c1N [Example 67, 4-amino-8-(2-(3,5-dichlorophenyl)-1H-benzo[d]imidazol-6-yl)cinnoline-3-carboxamide] | 63.1
29 | NC(=O)c1nnc2c(-c3ccc4nc(C5CCCCC5)[nH]c4c3)cccc2c1N [Example 68, 4-amino-8-(2-cyclohexyl-1H-benzo[d]imidazol-6-yl)cinnoline-3-carboxamide] | 158
30 | NC(=O)c1nnc2c(-c3ccc4nc(CCc5ccccc5)[nH]c4c3)cccc2c1N [Example 69, 4-amino-8-(2-phenethyl-1H-benzo[d]imidazol-6-yl)cinnoline-3-carboxamide] | 31.6
31 | NC(=O)c1nnc2c(-c3ccc4nc(-c5ccccc5Cl)[nH]c4c3)cccc2c1N [Example 70, 4-amino-8-(2-(2-chlorophenyl)-1H-benzo[d]imidazol-6-yl)cinnoline-3-carboxamide] | 79.4
32 | NC(=O)c1nnc2c(-c3ccc4nc(-c5cccc(C(F)(F)F)c5)[nH]c4c3)cccc2c1N [Example 71, 4-amino-8-(2-(3-(trifluoromethyl)phenyl)-1H-benzo[d]imidazol-6-yl)cinnoline-3-carboxamide] | 316
33 | NC(=O)c1nnc2c(-c3ccc4nc(C5CCCC5)[nH]c4c3)cccc2c1N [Example 72, 4-amino-8-(2-cyclopentyl-1H-benzo[d]imidazol-6-yl)cinnoline-3-carboxamide] | 1260
34 | NC(=O)c1nnc2c(-c3ccc4nc(-c5ccsc5)[nH]c4c3)cccc2c1N [Example 73, 4-amino-8-(2-(thiophen-3-yl)-1H-benzo[d]imidazol-6-yl)cinnoline-3-carboxamide] | 158
35 | COc1ccc(-c2nc3ccc(-c4cccc5c(N)c(C(N)=O)nnc45)cc3[nH]2)cc1 [Example 74, 4-amino-8-(2-(4-methoxyphenyl)-1H-benzo[d]imidazol-6-yl)cinnoline-3-carboxamide] | 79.4
36 | NC(=O)c1nnc2c(-c3ccc4nc(-c5cn6ccccc6n5)[nH]c4c3)cccc2c1N [Example 75, 4-amino-8-(2-(imidazo[1,2-a]pyridin-2-yl)-1H-benzo[d]imidazol-6-yl)cinnoline-3-carboxamide] | 126
37 | NC(=O)c1nnc2c(-c3ccc4nc(-c5cccc(Cl)c5)[nH]c4c3)cccc2c1N [Example 76, 4-amino-8-(2-(3-chlorophenyl)-1H-benzo[d]imidazol-6-yl)cinnoline-3-carboxamide] | 126
38 | NC(=O)c1nnc2c(-c3ccc4nc(Cc5ccccc5)[nH]c4c3)cccc2c1N [Example 77, 4-amino-8-(2-benzyl-1H-benzo[d]imidazol-6-yl)cinnoline-3-carboxamide] | 631
39 | NC(=O)c1nnc2c(-c3ccc4nc(CC5CCCCC5)[nH]c4c3)cccc2c1N [Example 78, 4-amino-8-(2-(cyclohexylmethyl)-1H-benzo[d]imidazol-6-yl)cinnoline-3-carboxamide] | 79.4
